# Measured values as given in paper PMC12302718, “Molecular basis for Gβγ-SNARE-mediated inhibition of synaptic vesicle fusion” (The Journal of Biological Chemistry, 2025).
# pIC50, pKd: −log10 of the molar value. Where no end group is shown, it is not given here.
# Experiments:
# SNAP25 = conditions: read-out: Potency in competing with full-length Gβ1γ2 for binding to SNAP25; peptide competition studies; cited from earlier work
# From the text: The importance of the N-terminal binding site is supported by the findings presented here as well as by previous findings, both in cell-based assays and in vitro binding studies ([10], [39]).
# [1] = target: fully zipped ternary SNARE mimetic; test: Microscale Thermophoresis (MST) affinity analysis, fully zipped SNARE; parameters: species or system rat; conditions: 250 nM fluorescently labeled (Red-Tris-NTA) Gβ1γ2, SNARE 0.56 nM−19.5 μM, n = 3 technical replicates, read-out: KD, binding to fully zipped SNARE
# [2] = test system: partially zipped and fully zipped ternary SNARE mimetics; tSNARE; test: Peptide array / far-Western blot with ternary SNARE mimetics and tSNARE; type: binding, rat; conditions: 0.5 μM SNARE protein, far-Western probed for SNAP25
# From the text: Binding was quantified as a fraction of the densitometric signal of a positive control peptide corresponding to residues 48 to 62 of rat complexin-1, which interacts with the ternary SNARE complex in co-crystal structures ([41], [51], [52]).
# Quantification of (A) Gβ1 and (B) Gγ2 peptides binding to the partially zipped (black striped bars) and fully zipped SNARE (gray bars). Densitometry measurements were normalized to a positive control peptide spot corresponding to a portion of the rat complexin-1 central helix (residues 48–62). Bar graphs represent the mean ± SD of three technical replicates. A, both SNARE mimetics interact with the N-terminal α-helix (H1, red), L1 (orange), B1 (yellow), and B2 (green) of Gβ1. […]
# Peptide array synthesis was performed using the ResPep SL peptide synthesizer (Intavis AG) according to standard SPOT synthesis protocols ([44], [70]). […] Spots were detected using HRP-conjugated secondary antibodies as described by the manufacturer. For densitometric analysis comparing Gβ and Gγ isoforms, the signal in individual dots was quantified as a percentage of total density detected on the membrane (Quantity One and Image Lab, Bio Rad, and Image J [Schneider et al., 2012]). […] Quantification of Gβ1 and Gγ2 peptide spots binding to ternary SNARE mimetics was performed by normalizing within each blot to a positive control corresponding to residues 48 to 62 of complexin-1. […]
# Gβ1γ2/SNAP25 interaction = target: T1, Gβ1γ2/SNAP25 interaction (Homo sapiens, UniProt P60880); test: Alphascreen competition-binding assay (peptides vs full-length Gβ1γ2/SNAP25); conditions: read-out: IC50, competition of SNAP25 C-terminal peptide with full-length SNAP25 for binding to Gβ1γ2, 95% CI: 1.27–2.70 μM, n = 21 technical replicates
# T1 construct: made in house
# T1 sequence (P60880 whole entry): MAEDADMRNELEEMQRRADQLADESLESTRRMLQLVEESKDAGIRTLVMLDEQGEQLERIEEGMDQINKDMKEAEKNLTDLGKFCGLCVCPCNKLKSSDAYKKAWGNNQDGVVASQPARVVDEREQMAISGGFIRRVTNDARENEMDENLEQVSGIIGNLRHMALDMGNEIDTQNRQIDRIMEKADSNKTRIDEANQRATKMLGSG
# From the text: Proximity of Alphascreen beads due to Gβ1γ2/SNAP25 interactions produces a luminescent signal. […] A value of 100% was assigned to the average of all conditions tested containing only DMSO as a positive control. The data points correspond to the mean ± SD percentage of positive control luminescence (n = 3 technical replicates). Data were fitted with a four-parameter non-linear regression model in GraphPad Prism to obtain IC50 values for each peptide (Table 1).
# Alphascreen luminescence measurements were performed as described ([33]). […] An EC80 concentration of 180 nM purified His6-Gβ1γ2 was made in assay buffer. Peptide stocks in DMSO were spotted onto 384-well white OptiPlates (PerkinElmer Life Sciences) at concentration ranges of 1 nM to 100 μM using a Labcyte Echo 555 Omics acoustic liquid handler (Labcyte), with DMSO being back-added to a final concentration of 0.1%. […] Subsequent to incubation while shaking for an additional 5 min, 10 μl of Alphascreen Histidine Detection Kit (nickel chelate) acceptor beads were added to a final concentration of 20 μg/ml in assay buffer. […] After being spun down briefly to settle all fluid at the bottom of the well, plates were incubated for an additional 1 h at 27 °C before being read in the EnSpire. […] IC50 concentrations for each peptide were determined by sigmoidal dose-response curve-fitting with variable slope.
substance,measurement,setting,value
"Gβ1 residues 328 to 337: peptide corresponding to Gβ1 residues 328 to 337, from ref 39 (ATGSWDSFLK; UniProt P62873 328-337, looked up, fragment)",pIC50,SNAP25,~4.55
Gβ1γ2: His-tagged soluble Gβ1γ2 (C68S) heterodimer purified from Sf9 cells,pKd,[1],< 4.89
"Gγ2 peptide 19: 15-mer Gγ2 array peptide number 19, membrane-coupled (PASENPFREKKFFCA; also: C-terminus coupled to the membrane)","Binding pattern, tSNARE versus ternary SNARE mimetics",[2],bound to tSNARE but not ternary SNARE
TRIDEANQRATKMLGSG,pIC50,Gβ1γ2/SNAP25 interaction,5.74
